{"source": "patent US20090017489A1", "about": "“Methods For Modulating The Development Of Dopamine Neuron By The Dopamine D2 Receptor And Compositions Thereof” (Korea University Industry And Academy Cooperation Foundation, priority 2006, published 2009)", "key": {"[1]": {"test_system": "TH-positive dopaminergic neurons in mesencephalic cultures from WT and D2R−/− mice", "test": "Number of TH-positive neurons and neurite length in primary mesencephalic cultures", "assay_type": "cell-based, mouse", "description": "(§1) D2R−/− mice and wild-type (WT) mice were obtained by mating D2R−/− mice and heterozygous mice, purchased from Institut de Genetiqul et Biologie Moleculaire et celluaire (Strasbourg, France), and their genotypes were identified by Southern hybridization analyses (An J J et al., Mol Cell Neurosci. 2004, 25: 732-741). Insemination was confirmed by vaginal plug and considered to be embryonic day 0 (E0). Pregnant mothers were killed at E14 in accordance with Society for Neuroscience Guidelines. To prepare primary mesencephalic neuronal cultures, the mesencephalon dissected from 14 day gestation mouse embryo was incubated with 0.1% of trypsin in HBSS for 10 minutes at 37° C. and triturated with a constricted Pasteur pipette in high-glucose DMEM media supplemented with 10% FBS (Invitrogen, San Diego, Calif.), 1.4 mM L-glutamine, and 6.0 g/L glucose. The neurons were plated at 1.0×10^5 cells per 18×18 mm coverslip (Marienfeld, Lauda-Konigshofen, Germany) or 2.0×10^5 cells per six-well plates precoated with 50 μg/ml poly-D-lysine and 2 μg/ml laminin (Sigma, St. Louis, Mo.). The neurons were maintained at 37° C. in a humidified 5% CO2 atmosphere in Neurobasal media supplemented with B27 and GlutaMax-1.\nTo determine whether the absence of dopamine D2 receptor (D2R) might affect the number of dopaminergic neurons, dopaminergic neurons, which were isolated from mesencephalons of wild-type (WT) and D2R−/− embryonic mice, were incubated on slides with 1.0×10^5 cells and precoated with 50 μg/ml poly-D-lysine and 2 μg/ml laminin (Sigma, St. Louis, Mo.) at 37° C. for 5 days, followed by performing immunofluorescence staining. The immunofluorescence staining was performed such that primarily cultured dopaminergic neurons were fixed with 4% paraformaldehyde for 20 minutes at room temperature (RT) and blocked for 1 hour in PBS containing 5% normal horse serum and 0.2% Triton X-100. Then, the neurons were incubated with a rabbit polyclonal anti-tyrosine hydroxylase (TH) (1:1000; Pel-Freez, Rogers, Ark.) in PBS containing 1% normal horse serum and 0.2% Triton X-100 at 4° C. for over 16 hours, and followed by staining according to avidin-biotin immunohistochemical procedures (Vector Laboratories, Burlingame, Calif.). Using a microscope equipped with an metamorph imaging system (Universal Imaging Corporation, West Chester, Pa.) in 20 randomly selected fields per each slide, cell counts and morphometric analysis were made in randomly selected unbiased counting frames (>40 frames out of 81 grids were counted).\nThereafter, the treated cells were fixed and stained in the same manner as in EXAMPLE 2 for counting the number TH-positive cells and analyzing the neuritic shape (FIG. 6A).\nThereafter, the neurons were treated with 1 μM quinpirol."}, "[2]": {"test_system": "phosphorylated ERK (p-ERK) in mesencephalic neurons from WT and D2R−/− mice", "test": "ERK phosphorylation in mesencephalic neurons (immunofluorescence and Western blot)", "assay_type": "cell-based, mouse", "conditions": "Western blot", "experimental": "Then, cells were fixed in the same manner as in EXAMPLE 2, a rabbit polyclonal anti-TH (1:1000; Pel-Freez) and a mouse monoclonal anti-phosphorylated ERK (p-ERK) (E10; 1:200; Cell Signaling, Beverly, Mass.) were reacted at 4° C. for 12 hours. Thereafter, the resultant neurons were stained at RT for 1 hour with two fluorescent antibodies, that is, Alexa Fluor 568 goat anti-rabbit IgG and Alexa Fluor 488 goat anti-mouse IgG (1:200; Molecular Probes, Eugene, Oreg.). After staining, ERK-positive neurons among TH-positive neurons were examined.\nTo observe immunofluorescent images, a confocal microscope system (Nikon Eclipse fluorescence microscope, TE2000-U, Nikon, Kanagawa, Japan; Ultraview RS confocal scanner, Perkin elmer, Wellesley, Mass.) or a fluorescence microscope (Axiovert 2000 microscope with epifluorescence unit, Zeiss, Zena, Germany) was used. The Western blot analysis was carried out in the following conditions. […] The resultant mixture was homogenized with probe type sonicator on ice, and followed by centrifugation at 13,000×g for 10 minutes at 4° C. Protein (50 μg), as measured by Bradford protein assay, was subjected to electrophoresis on 10% SDS-PAGE. […]"}, "[3]": {"test_system": "D2R-mediated Nurr1 activation", "test": "NurRE-dependent luciferase reporter gene activation assay in HEK293T cells transfected with D2R, Nurr1 and NurRE-luc", "assay_type": "cell-based", "description": "To investigate the effect of D2R on the number of TH-positive neurons and Nurr1 expression, Nur response element (NurRE)-dependent reporter gene activation assay was carried out to determine whether or not D2R activation might induce Nurr1 activation (Philips et al, Mol Cell Biol., 1997, 17:5946-5951; Maira et al, Mol Cell Biol., 1999, 19:7549-7557). HEK293T cells distributed from Korean cell line Bank were cultured in DMEM (Dulbeco's modified eagle's medium; Invitrogen, Carlsbad, Calif.) supplemented with 10% FBS (fetal bovine serum; Invitrogen, Carlsbad, Calif.) and transfected the same with dopamine receptors, Nurr1, and NurRE gene using a jetPEI transfection reagent (Qbiogene, Carlsbad, Calif.). In detail, 5˜7×10^5 cells confluent monolayers of HEK293 cells were transfected with 1.5 μg of pSV-D2R or pSV-D1R, 1.5 μg of pCMX-Nurr1, 1.5 μg of pXP1-luc containing POMC gene promoter and NurRE (pXP1-NurRE-luc), and 0.5 μg of pCH110. In case of the transfection with Ras dominant-negative mutant, cells were transfected with 1.0 μg of pMT-RasN17 or pSK-null vector, 1.0 μg of pSV-D2R, 1.0 μg of pCMX-Nurr1, 1.0 μg of pXP1-NurRE-luc, and 0.5 μg of pCH110. After 3 hours, the transfection mixture was replaced with fresh growth medium. Assays were performed 48 hours after transfection. Cells were preincubated overnight in serum-free growth medium before treatment with agonists. The cells were treated with various concentrations of dopamine or SKF38393, respectively, for 6 hours at 37° C. with or without preincubation of haloperidol (1 μM for 5 minutes), pertussis toxin (PTX) (100 ng/ml for 12 hours), H-89 (1 μM for 20 minutes), and PD98059 (10 μM for 30 minutes). After treatment, the cells were lysed and assayed for luciferase activity using the luciferase assay system (Promega, Madison, Wis.), and luminescence was measured using a 96-well luminometer (Microlumat; EG & Berthold, Bad Wilbad, Germany).\nThe data obtained were fitted to a sigmoid curve with a variable slope factor using nonlinear squares regression in GraphPad Prism software, which is shown in FIG. 5."}, "[4]": {"test_system": "dopamine D1 receptor (D1R)-mediated Nurr1 activation", "test": "NurRE-dependent luciferase reporter gene activation assay in HEK293T cells transfected with D1R", "assay_type": "cell-based", "description": "To investigate the effect of D2R on the number of TH-positive neurons and Nurr1 expression, Nur response element (NurRE)-dependent reporter gene activation assay was carried out to determine whether or not D2R activation might induce Nurr1 activation (Philips et al, Mol Cell Biol., 1997, 17:5946-5951; Maira et al, Mol Cell Biol., 1999, 19:7549-7557). HEK293T cells distributed from Korean cell line Bank were cultured in DMEM (Dulbeco's modified eagle's medium; Invitrogen, Carlsbad, Calif.) supplemented with 10% FBS (fetal bovine serum; Invitrogen, Carlsbad, Calif.) and transfected the same with dopamine receptors, Nurr1, and NurRE gene using a jetPEI transfection reagent (Qbiogene, Carlsbad, Calif.). In detail, 5˜7×10^5 cells confluent monolayers of HEK293 cells were transfected with 1.5 μg of pSV-D2R or pSV-D1R, 1.5 μg of pCMX-Nurr1, 1.5 μg of pXP1-luc containing POMC gene promoter and NurRE (pXP1-NurRE-luc), and 0.5 μg of pCH110. […] After treatment, the cells were lysed and assayed for luciferase activity using the luciferase assay system (Promega, Madison, Wis.), and luminescence was measured using a 96-well luminometer (Microlumat; EG & Berthold, Bad Wilbad, Germany)."}, "[5]": {"test_system": "TH-positive neurons in primary mesencephalic cultures from WT and D2R−/− mice", "test": "MPP+ treatment of primary mesencephalic dopaminergic neuronal cultures, TH-positive cell counting", "assay_type": "cell-based, mouse", "conditions": "for number of surviving TH-positive neurons: 10 μM MPP+, 24 hours", "description": "as §1\nTo determine whether the absence of dopamine D2 receptor (D2R) might affect the number of dopaminergic neurons, dopaminergic neurons, which were isolated from mesencephalons of wild-type (WT) and D2R−/− embryonic mice, were incubated on slides with 1.0×10^5 cells and precoated with 50 μg/ml poly-D-lysine and 2 μg/ml laminin (Sigma, St. Louis, Mo.) at 37° C. for 5 days, followed by performing immunofluorescence staining. […] Using a microscope equipped with an metamorph imaging system (Universal Imaging Corporation, West Chester, Pa.) in 20 randomly selected fields per each slide, cell counts and morphometric analysis were made in randomly selected unbiased counting frames (>40 frames out of 81 grids were counted). […]"}, "[6]": {"conditions": "D2R−/− mice, 1 μM haloperidol for 5 minutes then 1 μM quinpirole, versus control without haloperidol"}, "[7]": {"conditions": "WT and D2R−/− mice treated with haloperidol"}, "[8]": {"conditions": "PD98059 treatment versus control without PD98059"}}, "note": "Entries after “also recorded” stand apart in the source; their conditions may differ."}
{"smiles": "O=C(CCCN1CCC(O)(c2ccc(Cl)cc2)CC1)c1ccc(F)cc1", "note": "[haloperidol]", "values": [{"measurement": "neuritic extension", "setting": "[1]; [6]", "value": "no changes"}, {"measurement": "number of TH-positive neurons", "setting": "[1]; [6]", "value": "no changes"}, {"measurement": "average length of the neurites", "setting": "[1]; [7]", "value": "decreased or showed insignificant changes"}, {"measurement": "number of dopaminergic neurons", "setting": "[1]; [7]", "value": "decreased or showed insignificant changes"}, {"measurement": "phosphorylated ERK after quinpirole with antagonist", "setting": "[2]; 1 μM haloperidol for 5 minutes plus quinpirole", "value": "neither WT nor D2R−/− neurons showed phosphorylated ERK"}, {"measurement": "D2R-mediated Nurr1 activation by dopamine after antagonist", "setting": "[3]; haloperidol 1 μM preincubation for 5 minutes", "value": "reduced; also recorded: inhibited or decreased"}]}
{"smiles": "Oc1cc2c(c(Cl)c1O)CCNCC2c1ccccc1", "note": "(centres unmarked) [SKF81297]", "values": [{"measurement": "Nurr1 activation by D1R-specific agonist", "setting": "[4]", "value": "no significant change"}]}
{"smiles": "COc1cccc(-c2cc(=O)c3ccccc3o2)c1N", "note": "[PD98059]", "values": [{"measurement": "average length of neurites", "setting": "[1]; [8]", "value": "reduced"}, {"measurement": "number of TH-positive neurons", "setting": "[1]; [8]", "value": "slightly reduced"}, {"measurement": "phosphorylated ERK after quinpirole with MEK inhibitor", "setting": "[2]; 50 μM PD98059 for 30 minutes plus quinpirole", "value": "neither WT nor D2R−/− neurons showed phosphorylated ERK"}, {"measurement": "Nurr1 activation by dopamine in the presence of MEK inhibitor", "setting": "[3]; PD98059 10 μM for 30 minutes", "value": "noticeably reduced"}]}
{"smiles": "O=S(=O)(NCCNC/C=C/c1ccc(Br)cc1)c1cccc2cnccc12", "note": "[H-89]", "values": [{"measurement": "D2R-induced NurRE-dependent luciferase activation in the presence of PKA inhibitor", "setting": "[3]; H-89 1 μM for 20 minutes", "value": "did not give rise to a significant change"}]}
{"smiles": "C[n+]1ccc(-c2ccccc2)cc1", "note": "[MPP^+, 1-Methyl-4-phenylpyridinium]", "values": [{"measurement": "loss of dopaminergic neurons", "setting": "[5]; 1 to 10 μM MPP+ for 24 hours, D2R−/− versus WT cultures", "value": "more significant loss of dopaminergic neurons in the D2R−/− mice than in WT mice"}, {"measurement": "number of surviving TH-positive neurons", "setting": "[5]; D2R−/− mice cultures", "value": 40, "unit": "%"}, {"measurement": "number of surviving TH-positive neurons", "setting": "[5]; WT mice cultures", "value": 54, "unit": "%"}]}
{"smiles": "NCCc1ccc(O)c(O)c1", "note": "[dopamine]", "values": [{"measurement": "luciferase activation relative to control group", "setting": "[3]; HEK293T transfected with D2R, Nurr1 and NurRE-luc, dopamine at various concentrations, 6 hours", "value": "about 180%"}, {"measurement": "change in luciferase activation", "setting": "[3]; dopamine, in the absence of Nurr1 or D2R", "value": "no change in the activation"}]}
